According to publication PMC8236845:
Counter-ions that a name gives are not always drawn. Like-named read-outs stand apart in the source and are kept apart here. Numbered stars: 1 amine (or outer) side, 2 acyl side, 3 side chain; on linkers, the order of the positions; unused ones are H or OH. Bridge positions count the residues as written; N and C are the ends. Square brackets hold non-standard residues; d marks the D form. Peptide text beside a SMILES is read from it. * marks the point of attachment. pTerphenylCO(4''-OnC5H11) = CCCCCOc1ccc(-c2ccc(-c3ccc(C(=O)*)cc3)cc2)cc1; Orn(4R-OH,5R-OH) = O=C([C@H](C[C@@H](O)[C@@H](O)N[*:3])N[*:1])[*:2]; Tetradecanoyl(10R,12S-Me2) = CC[C@H](C)C[C@H](C)CCCCCCCCC(=O)*; hTyr(3S-OH,4S-OH) = N[C@H](C(=O)O)[C@H](O)[C@@H](O)c1ccc(O)cc1; Pro(3S-OH,4S-Me) = C[C@H]1CN[C@H](C(=O)O)[C@H]1O; Gln(3R-OH) = NC(=O)C[C@@H](O)[C@H](N)C(=O)O; Pro(3S-OH) = O=C(O)[C@H]1NCC[C@@H]1O; Hyp = O=C(O)[C@@H]1C[C@@H](O)CN1

Target: binding of recombinant, trimeric SARS-CoV-2 spike protein to recombinant human ACE2 (Severe acute respiratory syndrome coronavirus 2, UniProt P0DTC2, K986P/R682G/R683S/R685S/V987P)
Assay: biochemical
Parameters: species or system SARS-CoV-2 / human

Structure (SMILES) | % Inhibition | further results
CCN(CC)Cc1cc(Nc2ccnc3cc(Cl)ccc23)ccc1O [Amodiaquine hydrochloride] | 90% | 
CCCCCOc1ccc(-c2ccc(-c3ccc(C(=O)N[C@H]4C[C@@H](O)[C@@H](O)NC(=O)[C@@H]5[C@@H](O)[C@@H](C)CN5C(=O)[C@H]([C@@H](C)O)NC(=O)[C@H]([C@H](O)[C@@H](O)c5ccc(O)cc5)NC(=O)[C@@H]5C[C@@H](O)CN5C(=O)[C@H]([C@@H](C)O)NC4=O)cc3)cc2)cc1 [Anidulafungin] ({pTerphenylCO(4''-OnC5H11)}-[Orn(4R-OH,5R-OH)]T[Hyp][hTyr(3S-OH,4S-OH)]T[Pro(3S-OH,4S-Me)]; lactam 1-C) | 99% | 
CCOc1cc([C@@H](CS(C)(=O)=O)N2C(=O)c3cccc(NC(C)=O)c3C2=O)ccc1OC [Apremilast (CC-10004), Apremilast] | 96% | 
C[C@@H](O[C@H]1OCCN(Cc2n[nH]c(=O)[nH]2)[C@H]1c1ccc(F)cc1)c1cc(C(F)(F)F)cc(C(F)(F)F)c1 [Aprepitant] | 94% | 
CCOC(=O)c1c(CSc2ccccc2)n(C)c2cc(Br)c(O)c(CN(C)C)c12.Cl [Arbidol HCl] | 95% | 
COc1ccc(CN=c2[nH]c(N3CCC[C@H]3CO)ncc2C(=O)NCc2ncccn2)cc1Cl [Avanafil] | 99% | 
CC[C@@]1(O)C(=O)OCc2c1cc1n(c2=O)Cc2c-1nc1ccccc1c2CCNC(C)C [Belotecan] |  | inhibition of spike-ACE2 binding in the screen: did not inhibit
O=C(O)CCCC[C@@H]1SC[C@@H]2NC(=O)N[C@@H]21 [Biotin (Vitamin B7), Biotin] | 91% | 
CO[C@H]1C(=O)[C@]2(C)[C@@H](OC)C[C@H]3OC[C@@]3(OC(C)=O)[C@H]2[C@H](OC(=O)c2ccccc2)[C@]2(O)C[C@H](OC(=O)[C@H](O)[C@@H](NC(=O)OC(C)(C)C)c3ccccc3)C(C)=C1C2(C)C [Cabazitaxel] | 86% | 
CO/N=C(\C(=O)N[C@@H]1C(=O)N2C(C(=O)OCOC(=O)C(C)(C)C)=C(/C=C\c3scnc3C)CS[C@H]12)c1csc(N)n1 [Cefditoren Pivoxil] | 96% | 
CON=C(C(=O)NC1C(=O)N2C(C(=O)OCOC(=O)C(C)(C)C)=C(C)CSC12)c1csc(N)n1 (stereo not drawn) [Cefetamet Pivoxil Hydrochloride] | 94% | 
Cc1ccc(-c2cc(C(F)(F)F)nn2-c2ccc(S(N)(=O)=O)cc2)cc1 [Celecoxib] | 93% | IC50: 61.5 µM
COc1ccc2cc1Oc1ccc(cc1)C[C@H]1c3c(cc4c(c3Oc3cc5c(cc3OC)CCN(C)[C@@H]5C2)OCO4)CCN1C [Cepharanthine] | 94% | 
O=C(O)c1cn(C2CC2)c2cc(N3CCNCC3)c(F)cc2c1=O [Ciprofloxacin Hydrochloride Hydrate] | 93% | 
C[C@@H](Oc1cc(-c2cnn(C3CCNCC3)c2)cnc1N)c1c(Cl)ccc(F)c1Cl [Crizotinib (PF-02341066), Crizotinib] |  | % Inhibition, Screen: 55%
CN(C)c1ccc(C(=C2C=CC(=[N+](C)C)C=C2)c2ccc(N(C)C)cc2)cc1 [Crystal Violet] | 98% | 
COC(=O)N[C@H](C(=O)N1CCC[C@H]1c1nc(-c2ccc(-c3ccc(-c4c[nH]c([C@@H]5CCCN5C(=O)[C@@H](NC(=O)OC)C(C)C)n4)cc3)cc2)c[nH]1)C(C)C [Daclatasvir Dihydrochloride] | 97% | 
COC(=O)N[C@H](C(=O)N1CCC[C@H]1c1nc(-c2ccc(-c3ccc(-c4c[nH]c([C@@H]5CCCN5C(=O)[C@@H](NC(=O)OC)C(C)C)n4)cc3)cc2)c[nH]1)C(C)C [Daclatasvir] | 99% | 
Cc1nc(Nc2ncc(C(=O)Nc3c(C)cccc3Cl)s2)cc(N2CCN(CCO)CC2)n1.Cl [Dasatinib HCl] | 98% | EC50 (read-out: EC50 (corrected)): 65.9 µM
CN1C[C@H](C(=O)N[C@]2(C)O[C@@]3(O)[C@@H]4CCCN4C(=O)[C@H](Cc4ccccc4)N3C2=O)C[C@@H]2c3cccc4[nH]cc(c34)C[C@H]21 [Dihydroergotamine Mesylate] | 94% | 
CC(=O)O[C@@]12CO[C@@H]1C[C@H](O)[C@@]1(C)C(=O)[C@H](O)C3=C(C)[C@@H](OC(=O)[C@H](O)[C@@H](NC(=O)OC(C)(C)C)c4ccccc4)C[C@@](O)([C@@H](OC(=O)c4ccccc4)[C@H]21)C3(C)C [Docetaxel Trihydrate] | 95% | 
CC(=O)O[C@@]12CO[C@@H]1C[C@H](O)[C@@]1(C)C(=O)[C@H](O)C3=C(C)[C@@H](OC(=O)[C@H](O)[C@@H](NC(=O)OC(C)(C)C)c4ccccc4)C[C@@](O)([C@@H](OC(=O)c4ccccc4)[C@H]21)C3(C)C [Docetaxel] |  | % Inhibition, Screen: 98%
CO[C@H]1C[C@H](O[C@H]2[C@H](C)O[C@@H](O[C@@H]3/C(C)=C/C[C@@H]4C[C@@H](C[C@]5(C=C[C@H](C)[C@@H](C6CCCCC6)O5)O4)OC(=O)[C@@H]4C=C(C)[C@@H](O)[C@H]5OC/C(=C\C=C\[C@@H]3C)[C@]54O)C[C@@H]2OC)O[C@@H](C)[C@@H]1O [Doramectin] | 96% | EC50 (read-out: EC 50): 12.8 µM; IC50 (read-out: IC50 Mean): 12.8 µM
CN1CCc2nc(C(=O)N[C@@H]3C[C@@H](C(=O)N(C)C)CC[C@@H]3NC(=O)C(=O)Nc3ccc(Cl)cn3)sc2C1 [Edoxaban] | 95% | 

Structure (SMILES) | % Inhibition | further results
COC(=O)N[C@H](C(=O)N1CCC[C@H]1c1nc(-c2ccc3c(c2)O[C@@H](c2ccccc2)n2c-3cc3cc(-c4c[nH]c([C@@H]5CCCN5C(=O)[C@@H](NC(=O)OC)C(C)C)n4)ccc32)c[nH]1)C(C)C [Elbasvir] | 100% | 
CN1CCN(c2ccc(C(=O)Nc3n[nH]c4ccc(Cc5cc(F)cc(F)c5)cc34)c(NC3CCOCC3)c2)CC1 [Entrectinib] | 90% | IC50: 58.4 µM
C[C@]12CC[C@@H]3c4ccc(OC(=O)c5ccccc5)cc4CC[C@H]3[C@@H]1CC[C@@H]2O [Estradiol benzoate] | 93% | 
CO[C@H]1C[C@@H]2CC[C@@H](C)[C@@](O)(O2)C(=O)C(=O)N2CCCC[C@H]2C(=O)O[C@H]([C@H](C)C[C@@H]2CC[C@@H](OCCO)[C@H](OC)C2)CC(=O)[C@H](C)/C=C(\C)[C@@H](O)[C@@H](OC)C(=O)[C@H](C)C[C@H](C)/C=C/C=C/C=C/1C [Everolimus (RAD001), Everolimus] | 94% | 
N#Cc1nn(-c2c(Cl)cc(C(F)(F)F)cc2Cl)c(N)c1[S+]([O-])C(F)(F)F (stereo not drawn) [Fipronil] | 91% | 
CC[C@@]1(O)C(=O)OCc2c1cc1n(c2=O)Cc2cc3cc(O)ccc3nc2-1 [Hydroxycamptothecin] | 99% | 
Cc1ccc(NC(=O)c2ccc(CN3CCN(C)CC3)cc2)cc1Nc1nccc(-c2cccnc2)n1 [Imatinib] |  | inhibition of spike-ACE2 binding in the screen: failed to inhibit
CCc1c2c(nc3ccc(OC(=O)N4CCC(N5CCCCC5)CC4)cc13)-c1cc3c(c(=O)n1C2)COC(=O)[C@]3(O)CC [Irinotecan] |  | inhibition of spike-ACE2 binding in the screen: did not inhibit
COc1cc(-c2coc3cc4c(c(OC)c3c2=O)OCO4)cc(OC)c1OC [Irisflorentin] | 97% | 
COc1cc2nccc(Oc3ccc(NC(=O)NC4CC4)c(Cl)c3)c2cc1C(N)=O [Lenvatinib Mesylate] | 94% | 
O=C(NC1CCN(CCCCC2(C(=O)NCC(F)(F)F)c3ccccc3-c3ccccc32)CC1)c1ccccc1-c1ccc(C(F)(F)F)cc1 [Lomitapide Mesylate] | 93% | 
OC(c1cc(C(F)(F)F)nc2c(C(F)(F)F)cccc12)C1CCCCN1 (stereo not drawn) [Mefloquine] |  | % inhibition in first-round screen: 77%
CN(C)c1ccc2nc3ccc(=[N+](C)C)cc-3sc2c1 [Methylene Blue] |  | % inhibition in first-round screen: 44%
C[C@@H]1C[C@H]2[C@@H]3CCC4=CC(=O)C=C[C@]4(C)[C@@]3(Cl)[C@@H](O)C[C@]2(C)[C@@]1(OC(=O)c1ccco1)C(=O)CCl [Mometasone furoate] | 98% | 
Cc1c(O)cccc1C(=O)N[C@@H](CSc1ccccc1)[C@H](O)CN1C[C@H]2CCCC[C@H]2C[C@H]1C(=O)NC(C)(C)C [Nelfinavir Mesylate] | 94% | 
Cc1cn(-c2cc(NC(=O)c3ccc(C)c(Nc4nccc(-c5cccnc5)n4)c3)cc(C(F)(F)F)c2)cn1 [Nilotinib AMN-107, Nilotinib] | 99% | 
Cc1cn(-c2cc(NC(=O)c3ccc(C)c(Nc4nccc(-c5cccnc5)n4)c3)cc(C(F)(F)F)c2)cn1.Cl [Nilotinib HCl, Nilotinib Hydrochloride] | 99% | 
CCCCCCCCN=c1ccn(CCCCCCCCCCn2ccc(=NCCCCCCCC)cc2)cc1 [Octenidine Dihydrochloride] | 100% | 
C=CC(=O)Nc1cccc(Oc2nc(Nc3ccc(N4CCN(C)CC4)cc3)nc3ccsc23)c1 [Olmutinib] | 98% | 
COC(=O)N[C@H](C(=O)N1CCC[C@H]1C(=O)Nc1ccc([C@@H]2CC[C@@H](c3ccc(NC(=O)[C@@H]4CCCN4C(=O)[C@@H](NC(=O)OC)C(C)C)cc3)N2c2ccc(C(C)(C)C)cc2)cc1)C(C)C [Ombitasvir (ABT-267), Ombitasvir] | 92% | 
COc1cc([C@@H]2c3cc4c(cc3[C@H](O)[C@H]3COC(=O)[C@@H]23)OCO4)cc(OC)c1OC [Picropodophyllin] | 98% | 
CC[C@H](C)C[C@H](C)CCCCCCCCC(=O)N[C@H]1C[C@@H](O)[C@@H](O)NC(=O)[C@@H]2[C@@H](O)CCN2C(=O)[C@H]([C@H](O)CC(N)=O)NC(=O)[C@H]([C@H](O)[C@@H](O)c2ccc(O)cc2)NC(=O)[C@@H]2C[C@@H](O)CN2C(=O)[C@H]([C@@H](C)O)NC1=O [Pneumocandin B0] ({Tetradecanoyl(10R,12S-Me2)}-[Orn(4R-OH,5R-OH)]T[Hyp][hTyr(3S-OH,4S-OH)][Gln(3R-OH)][Pro(3S-OH)]; lactam 1-C) | 98% | EC50 (read-out: EC50 (corrected)): 72.8 µM
CC[C@@H]([C@H](C)O)n1ncn(-c2ccc(N3CCN(c4ccc(OC[C@@H]5CO[C@@](Cn6cncn6)(c6ccc(F)cc6F)C5)cc4)CC3)cc2)c1=O [Posaconazole] | 97% | 
CC[C@@]1(O)C(=O)OCc2c1cc1n(c2=O)Cc2cc3cc(O)ccc3nc2-1 [S-(10)-hydroxycamptothecin, (S)-10-Hydroxycamptothecin] | 100% | 
